Measurements as given in ChEMBL document CHEMBL3991601, “The target landscape of clinical kinase drugs” (Science, 2017).
Active and inactive are the calls of the source. Rule as the data show it, for most assays here: actives have a measured Kd and inactives only a lower limit.

Key:
Actin-related protein 2 = Actin-related protein 2 (Homo sapiens, UniProt P61160)
[1] = target: Ribosomal protein S6 kinase alpha-1 (Homo sapiens, UniProt Q15418)
[2] = target: T1, Serine/threonine-protein kinase TAO2 (Homo sapiens, UniProt Q9UL54)
T1 sequence (Q9UL54 whole entry): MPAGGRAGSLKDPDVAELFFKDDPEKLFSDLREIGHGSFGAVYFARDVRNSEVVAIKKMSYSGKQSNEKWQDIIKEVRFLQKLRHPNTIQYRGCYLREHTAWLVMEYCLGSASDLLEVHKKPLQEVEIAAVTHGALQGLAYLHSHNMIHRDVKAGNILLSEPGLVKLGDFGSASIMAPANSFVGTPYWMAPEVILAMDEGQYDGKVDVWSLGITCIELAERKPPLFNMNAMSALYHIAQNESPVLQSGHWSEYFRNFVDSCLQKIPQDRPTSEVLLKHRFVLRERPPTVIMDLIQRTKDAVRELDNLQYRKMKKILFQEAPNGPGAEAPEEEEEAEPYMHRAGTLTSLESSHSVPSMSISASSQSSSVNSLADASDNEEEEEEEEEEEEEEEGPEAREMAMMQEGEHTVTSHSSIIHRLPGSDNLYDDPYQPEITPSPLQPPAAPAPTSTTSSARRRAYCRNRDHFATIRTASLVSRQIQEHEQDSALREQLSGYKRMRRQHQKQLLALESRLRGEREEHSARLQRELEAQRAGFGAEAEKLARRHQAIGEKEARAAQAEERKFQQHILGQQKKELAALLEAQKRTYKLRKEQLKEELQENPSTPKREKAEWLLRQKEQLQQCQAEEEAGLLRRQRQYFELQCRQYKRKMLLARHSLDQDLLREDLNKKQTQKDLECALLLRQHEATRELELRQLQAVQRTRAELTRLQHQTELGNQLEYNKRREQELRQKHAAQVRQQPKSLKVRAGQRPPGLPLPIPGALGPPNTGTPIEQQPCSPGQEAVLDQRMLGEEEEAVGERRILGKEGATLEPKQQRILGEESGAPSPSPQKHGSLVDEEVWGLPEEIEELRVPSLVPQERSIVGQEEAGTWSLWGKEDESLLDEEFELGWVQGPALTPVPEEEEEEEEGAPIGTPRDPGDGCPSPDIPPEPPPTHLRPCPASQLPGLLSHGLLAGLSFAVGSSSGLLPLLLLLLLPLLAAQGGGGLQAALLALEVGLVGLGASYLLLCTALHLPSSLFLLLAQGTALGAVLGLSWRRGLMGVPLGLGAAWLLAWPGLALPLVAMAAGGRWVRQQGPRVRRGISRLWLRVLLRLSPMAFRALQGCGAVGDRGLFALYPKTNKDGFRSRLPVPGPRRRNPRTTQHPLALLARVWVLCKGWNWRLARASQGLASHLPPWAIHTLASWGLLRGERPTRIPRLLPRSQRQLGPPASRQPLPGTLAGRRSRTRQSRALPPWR

[3] = target: Rho-associated protein kinase 2 (Homo sapiens, UniProt O75116)
Rho-associated protein kinase 2, sequence (O75116 whole entry): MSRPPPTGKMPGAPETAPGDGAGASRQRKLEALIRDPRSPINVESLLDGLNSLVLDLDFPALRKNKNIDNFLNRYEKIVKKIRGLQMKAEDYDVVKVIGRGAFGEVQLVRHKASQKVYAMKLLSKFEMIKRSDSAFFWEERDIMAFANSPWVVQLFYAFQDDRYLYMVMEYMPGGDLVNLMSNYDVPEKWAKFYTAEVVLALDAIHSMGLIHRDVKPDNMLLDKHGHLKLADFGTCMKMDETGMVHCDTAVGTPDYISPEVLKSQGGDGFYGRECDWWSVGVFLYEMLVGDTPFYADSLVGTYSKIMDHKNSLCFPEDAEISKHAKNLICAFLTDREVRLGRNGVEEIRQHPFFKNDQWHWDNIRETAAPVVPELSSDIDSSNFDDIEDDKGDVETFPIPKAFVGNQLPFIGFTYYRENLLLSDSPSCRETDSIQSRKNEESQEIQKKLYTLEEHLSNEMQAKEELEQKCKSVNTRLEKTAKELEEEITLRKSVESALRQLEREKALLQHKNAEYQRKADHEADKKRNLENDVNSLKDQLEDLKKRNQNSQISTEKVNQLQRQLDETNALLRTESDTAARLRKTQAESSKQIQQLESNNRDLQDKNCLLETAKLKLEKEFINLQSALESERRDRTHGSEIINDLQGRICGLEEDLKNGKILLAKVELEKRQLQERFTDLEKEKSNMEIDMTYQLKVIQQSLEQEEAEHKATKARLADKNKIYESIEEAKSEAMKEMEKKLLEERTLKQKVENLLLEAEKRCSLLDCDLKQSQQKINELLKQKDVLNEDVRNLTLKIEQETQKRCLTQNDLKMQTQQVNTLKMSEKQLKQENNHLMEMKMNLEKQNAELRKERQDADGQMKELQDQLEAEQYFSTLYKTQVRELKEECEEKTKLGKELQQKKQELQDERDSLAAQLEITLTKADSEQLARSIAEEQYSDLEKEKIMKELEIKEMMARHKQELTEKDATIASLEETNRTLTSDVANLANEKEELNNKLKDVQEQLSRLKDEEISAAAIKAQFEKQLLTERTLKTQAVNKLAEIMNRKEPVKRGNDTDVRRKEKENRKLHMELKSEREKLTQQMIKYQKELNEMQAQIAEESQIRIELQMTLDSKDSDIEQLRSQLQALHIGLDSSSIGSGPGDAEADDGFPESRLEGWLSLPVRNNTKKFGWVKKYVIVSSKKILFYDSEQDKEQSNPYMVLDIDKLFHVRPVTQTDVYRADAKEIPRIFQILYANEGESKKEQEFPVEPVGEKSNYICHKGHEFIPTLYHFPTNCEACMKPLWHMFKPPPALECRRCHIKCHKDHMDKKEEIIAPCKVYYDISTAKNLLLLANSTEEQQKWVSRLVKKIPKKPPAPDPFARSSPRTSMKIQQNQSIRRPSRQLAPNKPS

[4] = target: Serine/threonine-protein kinase/endoribonuclease IRE1 (Homo sapiens, UniProt O75460)
Serine/threonine-protein kinase/endoribonuclease IRE1, sequence (O75460 whole entry): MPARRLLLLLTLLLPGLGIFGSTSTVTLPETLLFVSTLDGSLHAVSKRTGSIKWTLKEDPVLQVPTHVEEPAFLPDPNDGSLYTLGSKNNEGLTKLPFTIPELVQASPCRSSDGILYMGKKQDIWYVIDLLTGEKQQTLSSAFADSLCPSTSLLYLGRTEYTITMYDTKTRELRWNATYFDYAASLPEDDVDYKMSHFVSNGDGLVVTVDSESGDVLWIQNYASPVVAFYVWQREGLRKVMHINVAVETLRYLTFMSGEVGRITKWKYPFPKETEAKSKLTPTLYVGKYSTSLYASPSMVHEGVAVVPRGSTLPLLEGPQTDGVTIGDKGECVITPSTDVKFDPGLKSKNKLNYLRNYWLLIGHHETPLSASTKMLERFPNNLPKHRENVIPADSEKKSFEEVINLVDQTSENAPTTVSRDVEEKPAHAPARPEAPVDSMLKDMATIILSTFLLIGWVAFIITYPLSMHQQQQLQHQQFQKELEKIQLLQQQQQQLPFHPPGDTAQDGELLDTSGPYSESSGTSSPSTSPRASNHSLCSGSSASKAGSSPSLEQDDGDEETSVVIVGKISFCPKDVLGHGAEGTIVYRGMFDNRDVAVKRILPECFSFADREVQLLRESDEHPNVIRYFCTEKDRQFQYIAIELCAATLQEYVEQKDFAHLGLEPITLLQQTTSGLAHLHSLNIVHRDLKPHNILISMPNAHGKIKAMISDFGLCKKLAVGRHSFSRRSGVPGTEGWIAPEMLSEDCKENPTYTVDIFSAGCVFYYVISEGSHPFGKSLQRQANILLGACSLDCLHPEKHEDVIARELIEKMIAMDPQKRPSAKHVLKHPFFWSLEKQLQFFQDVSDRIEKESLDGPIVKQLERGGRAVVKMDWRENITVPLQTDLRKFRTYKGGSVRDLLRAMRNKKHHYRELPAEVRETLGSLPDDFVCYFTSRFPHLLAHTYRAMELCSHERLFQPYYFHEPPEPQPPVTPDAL

[5] = target: Cyclin-dependent kinase 1 (Homo sapiens, UniProt P06493)
Cyclin-dependent kinase 1, sequence (P06493 whole entry): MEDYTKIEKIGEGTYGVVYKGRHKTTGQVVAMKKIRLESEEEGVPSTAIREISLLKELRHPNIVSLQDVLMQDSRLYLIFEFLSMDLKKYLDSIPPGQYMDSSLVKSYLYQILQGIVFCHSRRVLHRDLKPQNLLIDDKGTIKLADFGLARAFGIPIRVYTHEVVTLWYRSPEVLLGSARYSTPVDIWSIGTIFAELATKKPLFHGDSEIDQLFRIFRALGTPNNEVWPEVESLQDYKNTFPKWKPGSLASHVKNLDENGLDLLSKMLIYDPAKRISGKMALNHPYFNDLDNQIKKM

Ephrin type-B receptor 6 = target: T2, Ephrin type-B receptor 6 (Homo sapiens, UniProt O15197)
T2 sequence (O15197 whole entry): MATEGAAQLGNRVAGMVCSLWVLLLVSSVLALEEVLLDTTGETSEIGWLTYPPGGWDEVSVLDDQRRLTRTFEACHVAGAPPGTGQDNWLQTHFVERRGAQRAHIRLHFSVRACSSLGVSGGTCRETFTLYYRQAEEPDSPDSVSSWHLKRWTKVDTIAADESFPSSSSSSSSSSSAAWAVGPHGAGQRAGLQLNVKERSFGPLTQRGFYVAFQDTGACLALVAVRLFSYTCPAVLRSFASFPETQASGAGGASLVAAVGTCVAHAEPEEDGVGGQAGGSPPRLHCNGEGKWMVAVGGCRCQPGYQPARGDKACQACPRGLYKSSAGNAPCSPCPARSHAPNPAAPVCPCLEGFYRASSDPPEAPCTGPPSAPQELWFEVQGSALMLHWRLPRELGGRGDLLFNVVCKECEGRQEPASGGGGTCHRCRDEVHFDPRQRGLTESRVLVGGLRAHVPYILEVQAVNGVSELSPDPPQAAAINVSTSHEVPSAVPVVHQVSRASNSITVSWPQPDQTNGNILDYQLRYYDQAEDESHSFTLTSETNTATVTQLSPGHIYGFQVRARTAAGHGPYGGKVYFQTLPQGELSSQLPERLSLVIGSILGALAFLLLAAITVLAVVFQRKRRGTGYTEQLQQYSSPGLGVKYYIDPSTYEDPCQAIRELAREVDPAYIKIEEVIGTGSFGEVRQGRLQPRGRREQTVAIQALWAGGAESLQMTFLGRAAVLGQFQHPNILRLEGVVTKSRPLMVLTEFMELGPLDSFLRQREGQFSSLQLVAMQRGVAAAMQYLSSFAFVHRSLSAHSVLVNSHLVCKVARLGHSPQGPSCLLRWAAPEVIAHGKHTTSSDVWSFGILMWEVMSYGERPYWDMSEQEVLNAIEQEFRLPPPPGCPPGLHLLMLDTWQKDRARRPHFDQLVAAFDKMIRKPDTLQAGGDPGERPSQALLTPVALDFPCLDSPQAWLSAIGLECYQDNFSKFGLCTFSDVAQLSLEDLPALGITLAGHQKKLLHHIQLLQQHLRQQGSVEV

[6] = target: Dual specificity tyrosine-phosphorylation-regulated kinase 1A (Homo sapiens, UniProt Q13627)
[7] = target: Serine/threonine-protein kinase SIK3 (Homo sapiens, UniProt Q9Y2K2)
Serine/threonine-protein kinase SIK3, sequence (Q9Y2K2 whole entry): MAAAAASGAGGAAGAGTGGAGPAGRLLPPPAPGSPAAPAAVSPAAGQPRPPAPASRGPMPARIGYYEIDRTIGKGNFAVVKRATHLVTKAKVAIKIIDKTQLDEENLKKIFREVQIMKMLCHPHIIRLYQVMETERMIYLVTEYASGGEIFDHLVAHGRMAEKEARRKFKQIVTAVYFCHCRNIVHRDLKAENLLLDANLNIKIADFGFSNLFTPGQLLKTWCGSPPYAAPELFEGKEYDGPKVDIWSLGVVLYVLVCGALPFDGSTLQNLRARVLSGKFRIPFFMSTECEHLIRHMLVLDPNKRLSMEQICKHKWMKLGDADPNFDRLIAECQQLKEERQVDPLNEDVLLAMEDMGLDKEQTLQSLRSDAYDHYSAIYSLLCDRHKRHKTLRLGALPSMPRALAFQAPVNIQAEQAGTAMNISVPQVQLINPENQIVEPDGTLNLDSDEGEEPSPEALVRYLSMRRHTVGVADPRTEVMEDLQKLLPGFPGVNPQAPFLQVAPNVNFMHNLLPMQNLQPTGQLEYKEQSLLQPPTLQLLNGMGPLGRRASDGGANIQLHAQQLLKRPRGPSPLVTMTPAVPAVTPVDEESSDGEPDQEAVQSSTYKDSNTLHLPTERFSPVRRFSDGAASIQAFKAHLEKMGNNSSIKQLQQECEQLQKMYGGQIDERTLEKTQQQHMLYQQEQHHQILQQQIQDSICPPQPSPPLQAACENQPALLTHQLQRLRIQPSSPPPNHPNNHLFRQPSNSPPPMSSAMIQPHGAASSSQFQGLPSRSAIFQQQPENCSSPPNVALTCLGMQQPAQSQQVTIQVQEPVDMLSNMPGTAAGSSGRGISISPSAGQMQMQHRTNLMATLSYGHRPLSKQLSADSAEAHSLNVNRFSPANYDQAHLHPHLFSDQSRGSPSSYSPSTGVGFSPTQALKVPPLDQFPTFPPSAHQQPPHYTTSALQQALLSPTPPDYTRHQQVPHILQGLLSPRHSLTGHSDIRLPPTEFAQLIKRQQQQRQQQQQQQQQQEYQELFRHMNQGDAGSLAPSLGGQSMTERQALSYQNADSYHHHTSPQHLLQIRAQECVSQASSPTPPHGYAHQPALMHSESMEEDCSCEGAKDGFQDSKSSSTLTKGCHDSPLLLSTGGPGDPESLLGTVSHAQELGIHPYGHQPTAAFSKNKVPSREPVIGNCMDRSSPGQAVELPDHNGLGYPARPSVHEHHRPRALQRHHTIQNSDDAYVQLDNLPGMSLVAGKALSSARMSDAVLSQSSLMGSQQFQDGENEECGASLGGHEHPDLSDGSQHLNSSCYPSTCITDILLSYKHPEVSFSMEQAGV
Also: in the data inactive means no Kd found up to 30 µM.

Ribosomal protein S6 kinase alpha-1, sequence (Q15418 whole entry): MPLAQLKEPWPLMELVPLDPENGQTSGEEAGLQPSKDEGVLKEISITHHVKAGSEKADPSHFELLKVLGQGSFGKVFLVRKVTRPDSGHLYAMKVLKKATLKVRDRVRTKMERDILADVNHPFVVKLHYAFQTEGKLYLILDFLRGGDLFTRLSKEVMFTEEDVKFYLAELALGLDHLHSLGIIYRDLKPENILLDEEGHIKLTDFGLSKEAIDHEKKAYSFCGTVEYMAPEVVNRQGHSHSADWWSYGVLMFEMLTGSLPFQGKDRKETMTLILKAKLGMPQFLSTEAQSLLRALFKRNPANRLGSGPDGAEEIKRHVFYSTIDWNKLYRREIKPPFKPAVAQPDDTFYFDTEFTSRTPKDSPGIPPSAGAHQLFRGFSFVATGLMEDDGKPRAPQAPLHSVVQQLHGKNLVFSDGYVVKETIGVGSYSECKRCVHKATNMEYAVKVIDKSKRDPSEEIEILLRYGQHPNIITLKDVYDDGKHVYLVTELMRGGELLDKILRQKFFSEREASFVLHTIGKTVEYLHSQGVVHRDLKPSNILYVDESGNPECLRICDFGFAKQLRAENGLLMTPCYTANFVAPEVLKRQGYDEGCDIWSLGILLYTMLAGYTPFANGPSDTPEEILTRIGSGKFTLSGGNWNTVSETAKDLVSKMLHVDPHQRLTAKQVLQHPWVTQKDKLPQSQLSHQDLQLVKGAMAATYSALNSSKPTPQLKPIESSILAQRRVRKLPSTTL

| Kd (Actin-related protein 2) | Kd [1] | Kd [2] | Kd [3] | Kd [4] | Kd [5] | Kd (Ephrin type-B receptor 6) | Kd [6] | Kd [7] | Structure (SMILES) |
| --- | --- | --- | --- | --- | --- | --- | --- | --- | --- |
| > 30 µM (inactive) | > 30 µM (inactive) | > 30 µM (inactive) | > 30 µM (inactive) | > 30 µM (inactive) | > 30 µM (inactive) | > 30 µM (inactive) | > 30 µM (inactive) | > 30 µM (inactive) | COc1ccc2c(OCc3nnc4ccc(-c5ccccc5)nn34)ccnc2c1 [AMG-208] |
| > 30 µM (inactive) | > 30 µM (inactive) | > 30 µM (inactive) | > 30 µM (inactive) | > 30 µM (inactive) | > 30 µM (inactive) | > 30 µM (inactive) | > 30 µM (inactive) | > 30 µM (inactive) | Cc1cc(Nc2nc(N[C@@H](C)c3ncc(F)cn3)ncc2Cl)n[nH]1 [AZD-1480] |
| > 30 µM (inactive) | > 30 µM (inactive) | > 30 µM (inactive) | > 30 µM (inactive) | > 30 µM (inactive) | > 30 µM (inactive) | > 30 µM (inactive) | 3.29 µM (active) | > 30 µM (inactive) | COc1cccc(Nc2ncnn3ccc(CN4CC[C@@H](N)[C@H](O)C4)c23)c1 [BMS-690514] |
|  | > 30 µM (inactive) | > 30 µM (inactive) | > 30 µM (inactive) | > 30 µM (inactive) | > 30 µM (inactive) | > 30 µM (inactive) | > 30 µM (inactive) | > 30 µM (inactive) | COc1cc2ncnc3c2cc1OCCCCCN(C)Cc1ccc(Br)cc1N3 [JNJ-26483327] |

The remaining lines, values behind:

| Structure (SMILES) | Kd (Actin-related protein 2) | Kd [1] | Kd [2] | Kd [3] | Kd [4] | Kd [5] | Kd (Ephrin type-B receptor 6) | Kd [6] | Kd [7] |
| --- | --- | --- | --- | --- | --- | --- | --- | --- | --- |
| O=c1[nH]c([C@@H]2CCCN2)nc2c1oc1ccc(Cl)cc12 | > 30 µM (inactive) | > 30 µM (inactive) | > 30 µM (inactive) | > 30 µM (inactive) | > 30 µM (inactive) | > 30 µM (inactive) | > 30 µM (inactive) | 0.04 µM | > 30 µM (inactive) |
| Cn1cc(-c2[nH]c3cc(NC(=O)[C@H](N)C4CCCCC4)cc4c3c2C=NNC4=O)cn1 | > 30 µM (inactive) | 5.2 µM | > 30 µM (inactive) | > 30 µM (inactive) | > 30 µM (inactive) | > 30 µM (inactive) | 1.53 µM | > 30 µM (inactive) | 0.386 µM (active) |
| Cc1c(NC(=O)OC[C@@H]2COCCN2)cn2ncnc(Nc3ccc4c(cnn4Cc4cccc(F)c4)c3)c12 [AC-480] | > 30 µM (inactive) | > 30 µM (inactive) | > 30 µM (inactive) | > 30 µM (inactive) | > 30 µM (inactive) | > 30 µM (inactive) | > 30 µM (inactive) | > 30 µM (inactive) | > 30 µM (inactive) |
| C=CCn1c(=O)c2cnc(Nc3ccc(N4CCN(C)CC4)cc3)nc2n1-c1cccc(C(C)(C)O)n1 [ADAVOSERTIB] | > 30 µM (inactive) | > 30 µM (inactive) | > 30 µM (inactive) | > 30 µM (inactive) | > 30 µM (inactive) | > 30 µM (inactive) | 0.337 µM (active) | > 30 µM (inactive) | > 30 µM (inactive) |
| CCc1cc2c(cc1N1CCC(N3CCOCC3)CC1)C(C)(C)c1[nH]c3cc(C#N)ccc3c1C2=O [ALECTINIB] | > 30 µM (inactive) | > 30 µM (inactive) | > 30 µM (inactive) | > 30 µM (inactive) | > 30 µM (inactive) | > 30 µM (inactive) | > 30 µM (inactive) | > 30 µM (inactive) | > 30 µM (inactive) |
| S=C(NCc1ccc2c(c1)OCO2)N1CCN(c2ncnc3c2oc2ccccc23)CC1 [AMUVATINIB] | > 30 µM (inactive) | > 30 µM (inactive) | > 30 µM (inactive) | > 30 µM (inactive) | > 30 µM (inactive) | > 30 µM (inactive) | > 30 µM (inactive) | > 30 µM (inactive) | > 30 µM (inactive) |
| COc1ccc(-c2ccc3ncc4c(c3c2)n(-c2ccc(N3CCNCC3)c(C(F)(F)F)c2)c(=O)n4C)cn1 [BGT-226 FREE BASE] | > 30 µM (inactive) | > 30 µM (inactive) | > 30 µM (inactive) | > 30 µM (inactive) | > 30 µM (inactive) | > 30 µM (inactive) | > 30 µM (inactive) | 0.922 µM (active) | > 30 µM (inactive) |
| COc1cc2nccc(Oc3ccc(NC(=O)C4(C(=O)Nc5ccc(F)cc5)CC4)cc3)c2cc1OC [CABOZANTINIB] | > 30 µM (inactive) | > 30 µM (inactive) | > 30 µM (inactive) | > 30 µM (inactive) | > 30 µM (inactive) | > 30 µM (inactive) | > 30 µM (inactive) | > 30 µM (inactive) | > 30 µM (inactive) |
| CC1(COc2ccc3c(c2)ncn3-c2ccc3cccc(N4CCC(N)CC4)c3n2)COC1 [CRENOLANIB] | > 30 µM (inactive) | > 30 µM (inactive) | > 30 µM (inactive) | > 30 µM (inactive) | > 30 µM (inactive) | 1.38 µM (active) | > 30 µM (inactive) | 4.97 µM (active) | 0.002 µM (active) |
| COc1cc2ncnc(Nc3ccc(F)c(Cl)c3)c2cc1NC(=O)/C=C/CN1CCCCC1 [DACOMITINIB ANHYDROUS] | > 30 µM (inactive) | > 30 µM (inactive) | > 30 µM (inactive) | > 30 µM (inactive) | > 30 µM (inactive) | > 30 µM (inactive) | > 30 µM (inactive) | > 30 µM (inactive) | > 30 µM (inactive) |
| CNC(=O)c1ccc(Nc2ncc(C(F)(F)F)c(NCc3nccnc3N(C)S(C)(=O)=O)n2)cc1 [DEFACTINIB] |  | > 30 µM (inactive) | > 30 µM (inactive) | > 30 µM (inactive) | > 30 µM (inactive) | 2.01 µM | > 30 µM (inactive) | 9.12 µM (active) | > 30 µM (inactive) |
| COc1cc(F)c(F)c(Nc2ccc(I)cc2F)c1NS(=O)(=O)C1(C[C@H](O)CO)CC1 [REFAMETINIB] |  | > 30 µM (inactive) | > 30 µM (inactive) | > 30 µM (inactive) | > 30 µM (inactive) | > 30 µM (inactive) | > 30 µM (inactive) | > 30 µM (inactive) | > 30 µM (inactive) |
| C=CCN(/C=C1/C(=O)O[C@H](COC)[C@@]2(C)C1=C(O)C(=O)C1=C2[C@H](OC(C)=O)C[C@]2(C)C(=O)CC[C@@H]12)CC=C [SONOLISIB] |  | > 30 µM (inactive) | > 30 µM (inactive) | > 30 µM (inactive) | > 30 µM (inactive) | > 30 µM (inactive) | > 30 µM (inactive) | > 30 µM (inactive) | 0.011 µM |
